Molecular target: T1, TGF-beta receptor type-1 (Homo sapiens, UniProt P36897)
T1 sequence (P36897 whole entry): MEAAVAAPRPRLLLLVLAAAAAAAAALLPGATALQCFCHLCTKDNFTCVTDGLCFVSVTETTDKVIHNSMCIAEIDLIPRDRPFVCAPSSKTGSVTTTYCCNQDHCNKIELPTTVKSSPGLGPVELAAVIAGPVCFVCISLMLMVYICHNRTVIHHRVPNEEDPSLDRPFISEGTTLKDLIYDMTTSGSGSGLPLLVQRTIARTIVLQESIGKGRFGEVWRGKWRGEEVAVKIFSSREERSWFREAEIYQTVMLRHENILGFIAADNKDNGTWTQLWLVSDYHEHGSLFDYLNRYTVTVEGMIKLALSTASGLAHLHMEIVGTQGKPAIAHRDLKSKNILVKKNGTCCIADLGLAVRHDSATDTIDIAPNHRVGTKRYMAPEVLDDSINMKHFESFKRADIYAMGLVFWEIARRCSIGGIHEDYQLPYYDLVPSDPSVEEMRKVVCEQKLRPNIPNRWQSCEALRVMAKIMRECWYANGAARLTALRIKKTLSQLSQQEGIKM

IC50 [nM]	Structure (SMILES)
110	CCSc1ccc2c(-c3c(-c4ccccn4)nn4c3CCC4)ccnc2c1
88	CCOc1ccc2c(-c3c(-c4cccc(C)n4)nn4c3CCC4)ccnc2c1
104	c1ccc(-c2nn3c(c2-c2ccnc4ccccc24)CCC3)nc1
71	CCc1cccc(-c2nn3c(c2-c2ccnc4ccccc24)CCC3)n1
19	c1ccc(-c2n[nH]cc2-c2ccc3ncccc3n2)nc1
64	CN(C)CC(=O)Nc1ccc2c(-c3c(-c4ccccn4)nn4c3CCC4)ccnc2c1
151	Fc1ccc(-c2nn3c(c2-c2ccnc4ccccc24)CCC3)nc1
9290	CCS(=O)(=O)c1ccc2c(-c3c(-c4ccccn4)nn4c3CCC4)ccnc2c1
48	Cc1cccc(-c2nn3c(c2-c2ccnc4cc(Cl)ccc24)CCC3)n1
119	C#Cc1cccc(NCc2nc(-c3ccc4nccnc4c3)c(-c3cccc(CC)n3)[nH]2)c1
174	C#Cc1ccc(NCc2nc(-c3ccc4c(c3)OCO4)c(-c3cccc(C)n3)[nH]2)cc1
46	CCc1cccc(-c2[nH]c(CNc3ccc(C(N)=O)cc3)nc2-c2ccc3c(c2)OCO3)n1
398	CN(C)CCCn1cnc2cc(-c3c(-c4ccccn4)nn4c3CCC4)ccc21
34	COCCC(=O)Nc1ccc2c(-c3c(-c4ccccn4)nn4c3CCC4)ccnc2c1
87	CC(=O)Nc1ccc2c(-c3c(-c4ccccn4)nn4c3CCC4)ccnc2c1
79	O=C(Nc1ccc2c(-c3c(-c4ccccn4)nn4c3CCC4)ccnc2c1)OCCO
27	O=C(O)c1ccc(-c2cc(-c3c[nH]nc3-c3ccccn3)ccn2)cc1
1780	Nc1nc(-c2cccc(Cl)n2)c(-c2ccnc3ccccc23)s1
1700	Cc1cccc(-c2nn3c(c2-c2ccc4c(c2)ncn4C)CCC3)n1
40	COC(=O)Nc1ccc2c(-c3c(-c4ccccn4)nn4c3CCC4)ccnc2c1
255	CN(C)CCCNC(=O)Nc1ccc2c(-c3c(-c4ccccn4)nn4c3CCC4)ccnc2c1
32	O=C(CCO)Nc1ccc2c(-c3c(-c4ccccn4)nn4c3CCC4)ccnc2c1
59	Nc1ccc2c(-c3c(-c4ccccn4)nn4c3CCC4)ccnc2c1

Structure (SMILES)	IC50 [nM]
Cc1cccc(-c2[nH]c(CNc3ccc(C#N)cc3)nc2-c2ccc3c(c2)OCO3)n1	46
Cc1cccc(-c2[nH]c(CNc3ccc(C(N)=O)cc3)nc2-c2ccc3c(c2)OCO3)n1	21
C#Cc1ccc(CNc2nc(-c3ccc4c(c3)OCO4)c(-c3cccc(C)n3)[nH]2)cc1	153
Cc1cccc(-c2[nH]c(NCc3ccc(C#N)cc3)nc2-c2ccc3c(c2)OCO3)n1	24
Cc1cccc2ccc(-c3sc(N)nc3-c3ccccn3)nc12	30
CN(C)CCNC(=O)Nc1ccc2c(-c3c(-c4ccccn4)nn4c3CCC4)ccnc2c1	18
c1ccc(-c2n[nH]cc2-c2ccnc(-c3ccc(CNC4CCCOC4)cc3)c2)nc1 (stereo unspecified)	47
Fc1ccc(C2C(c3ccncc3)NC3SCCN32)cc1 (stereo unspecified)	50000
CN(C)CCCc1cccc(-c2cc(-c3c[nH]nc3-c3ccccn3)ccn2)c1	15
Cc1cccnc1-c1nc(N)sc1-c1ccc2ncccc2n1	6
Nc1nc(-c2cccc(Cl)c2)c(-c2ccc3ncccc3n2)s1 [GW780159X]	13
Nc1nc(-c2ccc(F)cc2)c(-c2ccc3ncccc3n2)s1 [GW785804X]	11
CCc1[nH]c(-c2ccc(OC)cc2)nc1-c1ccncc1 [SB-202474]	30000

From ChEMBL document CHEMBL1155322, “Pharmacophore modeling and virtual screening for the discovery of new transforming growth factor-beta type I receptor (ALK5) inhibitors” (Eur J Med Chem, 2009)
